Reference: patent US6683184B2, “Piperazine derivatives and process for the preparation thereof” (Samjin Pharmaceutical Co., Ltd., priority 1999, dated 2004)
Values after ≈ are worked out from the molar mass of the structure shown. Read-outs that look alike come from different tables or passages of the source.

Columns and labels:
XF 498 (human CNS) = experiment: In vitro antitumor effect against human tumor cell lines, SRB assay, XF 498; format: cell-based; conditions: 48 hours; for IC50: Homo sapiens, XF498, XF-498 cells, read-out: ED50 XF-498
Procedure, shortened: (§1)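 Following 24 h growth at 37° C, tumour cells are incubated 48 h with compound diluted from DMSO (final below 0.5%). Protein content is measured by SRB at 520 nm, with net growth or killing calculated against time-zero and drug-free wells.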

[1] = test system: P388 (mouse lymphoid neoplasma cell); experiment: In vitro antitumor effects against animal leukemia cells, dye exclusion assay; format: cell-based; conditions: 48 hours, trypan blue dye exclusion, read-out: P388 (IC50, concentration showing 50% cell growth inhibition compared with the control)
Method: In vitro antitumor effects against animal leukemia cells.
Tumor cell line: P388 (mouse lymphoid neoplasma cell)
B. Method: Dye Exclusion Assay.
1) Concentrations of P388 cells being cultured in RPMI 1640 media containing 10% FBS were regulated to 1×10^6 cells/ml.
2) Sample drugs of respective concentrations diluted in the ratio of log doses were added into each cell culture and cultured at 37° C., for 48 hours, in […] incubator, and then viable cell numbers were measured by dye exclusion test using trypan blue.

[2] = Acute toxicity test (LD50), Litchfield-Wilcoxon method; format: in vivo; conditions: mouse, in vivo, ICR mice, male, observed 14 days
SKOV-3 (human ovarian) = experiment: In vitro antitumor effect against human tumor cell lines, SRB assay, SKOV-3; format: cell-based; conditions: SK-OV-3 cells, 48 hours; for IC50: Homo sapiens, read-out: ED50 SK-OV-3
Procedure, shortened: as §1

[3] = test system: A549 (human non-small lung cell); experiment: In vitro antitumor effect against human tumor cell lines, SRB assay, A549; format: cell-based; conditions: A549 cells, 48 hours; for IC50: Homo sapiens, read-out: ED50 A 549
Procedure, shortened: as §1

HCT-15 (human colon) = experiment: In vitro antitumor effect against human tumor cell lines, SRB assay, HCT-15; format: cell-based; conditions: HCT 15 cells, 48 hours; for IC50: Homo sapiens, read-out: ED50 HCT 15
Procedure, shortened: as §1

SKMEL-2 (human melanoma) = experiment: In vitro antitumor effect against human tumor cell lines, SRB assay, SKMEL-2; format: cell-based; conditions: SK-MEL-2 cells, 48 hours; for IC50: Homo sapiens, read-out: ED50 SK-MEL-2
Procedure, shortened: as §1

ICR mice = experiment: Acute toxicity test (LD50), Litchfield-Wilcoxon method; format: in vivo; conditions: male, i.v., observed 14 days

Row | SMILES | IC50 (XF 498 (human CNS)) | IC50 [1] | LD50 at 14 days ([2]; iv, i.v., read-out: LD50 i.v.) | IC50 (SKOV-3 (human ovarian)) | IC50 [3] | IC50 (HCT-15 (human colon)) | IC50 (SKMEL-2 (human melanoma)) | LD50 at 14 days ([2]; po, p.o., read-out: LD50 p.o.) | ED50 XF-498 (XF 498 (human CNS); XF-498 cells) | LD50 i.v. (ICR mice) | ED50 SK-OV-3 (SKOV-3 (human ovarian)) | ED50 A 549 [3] | ED50 HCT 15 (HCT-15 (human colon)) | ED50 SK-MEL-2 (SKMEL-2 (human melanoma))
1 | COc1nc(C)c(C)nc1NC(=O)N1CCN(c2cc(C)cc(C)c2)CC1 [Example 7, 1-[(5,6-Dimethyl-2-methoxypyrazin-3-yl)aminocarbonyl]-4-(3,5-dimethylphenyl)piperazine] | 2.7 ng/mL (≈ 7.31 nM) | 20 ng/mL (≈ 54.1 nM) | 75 mg/kg | 7.2 ng/mL (≈ 19.5 nM) | 2.4 ng/mL (≈ 6.5 nM) | 2.8 ng/mL (≈ 7.58 nM) | 2.3 ng/mL (≈ 6.23 nM) | – | – | – | – | – | – | –
2 | COc1cc(OC)cc(N2CCN(C(=O)Nc3nc4ccccc4nc3OC)CC2)c1 [Example 38, 1-[(2-Methoxyquinoxalin-3-yl)aminocarbonyl]-4-(3,5-dimethoxyphenyl)piperazine] | 0.11 ng/mL (≈ 0.26 nM) | 10 ng/mL (≈ 23.6 nM) | 97 mg/kg | 0.09 ng/mL (≈ 0.213 nM) | 0.03 ng/mL (≈ 0.0708 nM) | 0.13 ng/mL (≈ 0.307 nM) | 0.04 ng/mL (≈ 0.0945 nM) | 410 mg/kg | – | – | – | – | – | –
3 | COc1nc(C)c(C)cc1N=C(NO)N1CCN(c2cc(C)cc(C)c2)CC1 [Example 99, N-Hydroxy-N′-(5,6-dimethyl-2-methoxypyridin-3-yl)-[4-(3,5-dimethylphenyl)piperazin-1-yl]carboxyimidamide] | – | – | – | – | – | – | – | – | 10 ng/mL (≈ 26.1 nM) | >200 mg/kg | 8 ng/mL (≈ 20.9 nM) | 12 ng/mL (≈ 31.3 nM) | 3 ng/mL (≈ 7.82 nM) | 6 ng/mL (≈ 15.6 nM)
4 | COc1nc(C)c(C)cc1N=C(NO)N1CCN(c2cccc(Br)c2)CC1 [Example 104, N-Hydroxy-N′-(5,6-dimethyl-2-methoxypyridin-3-yl)-[4-(3-bromophenyl)piperazin-1-yl]carboxyimidamide] | – | – | – | – | – | – | – | – | – | 212 mg/kg | – | – | – | –
